Laboratory results: paper PMC8379669 (Computational and Structural Biotechnology Journal, 2021)

Key:
AChE = conditions: read-out: IC50 (AChEI); cited from earlier work
[1] = molecular target: AChE from Electrophorus electricus (electric eel) (Electrophorus electricus, UniProt O42275); experiment: In vitro AChE inhibition assay; type: biochemical
[2] = system: rat primary cortical neurons; experiment: Glutamate-induced excitotoxicity, MAP2 immunostaining and DAPI staining; type: cell-based; conditions: DIV9 neurons, 100 µM glutamate and 10 µM glycine
BChE from equine serum = BChE from equine serum (Equus caballus, UniProt P81908); experiment: biochemical; type: biochemical; conditions: for IC50 values (mean ± SD) BChE: BChE from equine serum
HepG2 cells = experiment: MTT cytotoxicity assay on HepG2 cells; conditions: 24 h; for cytotoxicity on HepG2 cells, in words: 10-300 μM
[3] = molecular target: GluN2B containing NMDAR (GluN1/GluN2B) in HEK-293 cells (Homo sapiens, UniProt Q05586+Q13224); experiment: Cell-based NMDAR activity assay; conditions: for number of punctate cells: 5 μM, with NMDAR agonists and Ca2+ (Fig. 2B); for inhibition at 50 µM / inhibition at 100 µM: HEK293, read-out: inhibition of NMDAR activity; for category of NMDAR inhibitor: based on NMDAR IC50; for antagonism of NMDAR activity, in words: initial screening studies
rat liver = experiment: In vivo hepatotoxicity assessment by liver histopathology; conditions: IP, 15 days; for liver histopathology (H&E), in words: 201 3 mg/Kg, 208 1 mg/Kg, tacrine 5 mg/Kg
[4] = system: rat primary cortical neurons; experiment: Glutamate-induced excitotoxicity, MTT assay; type: cell-based; conditions: DIV9 neurons, glutamate 3 h, MTT after 24 h; pre-treatment with compounds
[5] = system: MSG induced cognitive impairment in rats; experiment: Morris water maze test in MSG treated rats; type: in vivo; conditions: rat, IP, 3 mg/Kg body weight with MSG 4 g/Kg; vs MSG alone
NMDAR = conditions: read-out: IC50 NMDAR, reported value; cited from earlier work

GluN2B containing NMDAR (GluN1/GluN2B) in HEK-293 cells, sequence (Q13224 27-1484, species assumed, other chains not shown): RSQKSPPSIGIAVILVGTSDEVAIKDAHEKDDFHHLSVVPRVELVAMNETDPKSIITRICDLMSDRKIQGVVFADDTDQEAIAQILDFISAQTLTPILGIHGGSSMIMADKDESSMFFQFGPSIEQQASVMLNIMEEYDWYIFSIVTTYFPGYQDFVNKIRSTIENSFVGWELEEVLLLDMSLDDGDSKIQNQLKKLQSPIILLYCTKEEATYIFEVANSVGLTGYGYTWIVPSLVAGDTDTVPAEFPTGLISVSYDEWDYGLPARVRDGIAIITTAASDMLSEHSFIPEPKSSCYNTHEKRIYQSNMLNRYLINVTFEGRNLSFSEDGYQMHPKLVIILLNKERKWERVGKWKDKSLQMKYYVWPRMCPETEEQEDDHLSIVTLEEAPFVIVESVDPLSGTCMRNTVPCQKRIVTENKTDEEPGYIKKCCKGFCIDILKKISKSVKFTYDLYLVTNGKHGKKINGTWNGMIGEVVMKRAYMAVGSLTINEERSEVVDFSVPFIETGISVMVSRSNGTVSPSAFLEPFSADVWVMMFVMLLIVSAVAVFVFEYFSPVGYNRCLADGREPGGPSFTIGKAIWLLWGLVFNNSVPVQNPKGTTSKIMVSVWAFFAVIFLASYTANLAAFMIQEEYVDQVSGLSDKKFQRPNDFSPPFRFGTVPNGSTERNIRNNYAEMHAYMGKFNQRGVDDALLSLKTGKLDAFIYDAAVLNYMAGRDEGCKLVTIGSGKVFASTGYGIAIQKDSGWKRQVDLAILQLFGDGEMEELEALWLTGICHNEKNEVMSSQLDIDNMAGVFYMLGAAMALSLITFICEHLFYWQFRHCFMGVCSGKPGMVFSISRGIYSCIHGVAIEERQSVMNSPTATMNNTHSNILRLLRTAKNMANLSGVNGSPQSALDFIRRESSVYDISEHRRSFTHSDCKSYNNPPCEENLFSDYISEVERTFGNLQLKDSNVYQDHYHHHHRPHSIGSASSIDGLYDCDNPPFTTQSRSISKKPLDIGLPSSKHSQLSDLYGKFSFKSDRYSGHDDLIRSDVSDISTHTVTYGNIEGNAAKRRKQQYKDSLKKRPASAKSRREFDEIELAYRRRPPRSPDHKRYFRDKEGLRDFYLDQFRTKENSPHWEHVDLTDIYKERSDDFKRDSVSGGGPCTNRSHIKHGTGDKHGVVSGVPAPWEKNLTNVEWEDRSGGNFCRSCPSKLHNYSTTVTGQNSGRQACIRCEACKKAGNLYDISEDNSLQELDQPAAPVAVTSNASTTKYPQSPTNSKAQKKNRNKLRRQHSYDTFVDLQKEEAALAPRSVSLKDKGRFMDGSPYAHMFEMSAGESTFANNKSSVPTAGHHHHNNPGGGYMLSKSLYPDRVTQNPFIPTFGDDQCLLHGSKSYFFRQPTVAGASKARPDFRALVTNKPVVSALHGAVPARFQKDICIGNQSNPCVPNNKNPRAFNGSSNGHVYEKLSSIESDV
AChE from Electrophorus electricus (electric eel), sequence (O42275 24-633): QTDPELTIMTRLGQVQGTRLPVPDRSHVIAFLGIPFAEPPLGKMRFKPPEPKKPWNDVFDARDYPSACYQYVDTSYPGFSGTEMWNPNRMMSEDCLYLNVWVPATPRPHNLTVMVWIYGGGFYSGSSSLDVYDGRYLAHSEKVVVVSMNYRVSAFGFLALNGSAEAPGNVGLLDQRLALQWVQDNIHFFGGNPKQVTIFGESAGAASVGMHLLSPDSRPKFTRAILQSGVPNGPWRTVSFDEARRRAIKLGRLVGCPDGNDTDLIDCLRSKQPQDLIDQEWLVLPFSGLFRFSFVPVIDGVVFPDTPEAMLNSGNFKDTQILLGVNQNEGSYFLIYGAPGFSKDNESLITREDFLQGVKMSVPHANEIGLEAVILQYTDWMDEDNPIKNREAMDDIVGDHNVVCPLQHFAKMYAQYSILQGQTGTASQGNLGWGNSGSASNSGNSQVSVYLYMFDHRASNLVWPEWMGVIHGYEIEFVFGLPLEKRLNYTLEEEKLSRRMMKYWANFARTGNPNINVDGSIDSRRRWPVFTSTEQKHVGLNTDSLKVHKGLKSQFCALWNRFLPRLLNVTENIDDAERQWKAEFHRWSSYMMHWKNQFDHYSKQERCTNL
BChE from equine serum, sequence (P81908 whole entry): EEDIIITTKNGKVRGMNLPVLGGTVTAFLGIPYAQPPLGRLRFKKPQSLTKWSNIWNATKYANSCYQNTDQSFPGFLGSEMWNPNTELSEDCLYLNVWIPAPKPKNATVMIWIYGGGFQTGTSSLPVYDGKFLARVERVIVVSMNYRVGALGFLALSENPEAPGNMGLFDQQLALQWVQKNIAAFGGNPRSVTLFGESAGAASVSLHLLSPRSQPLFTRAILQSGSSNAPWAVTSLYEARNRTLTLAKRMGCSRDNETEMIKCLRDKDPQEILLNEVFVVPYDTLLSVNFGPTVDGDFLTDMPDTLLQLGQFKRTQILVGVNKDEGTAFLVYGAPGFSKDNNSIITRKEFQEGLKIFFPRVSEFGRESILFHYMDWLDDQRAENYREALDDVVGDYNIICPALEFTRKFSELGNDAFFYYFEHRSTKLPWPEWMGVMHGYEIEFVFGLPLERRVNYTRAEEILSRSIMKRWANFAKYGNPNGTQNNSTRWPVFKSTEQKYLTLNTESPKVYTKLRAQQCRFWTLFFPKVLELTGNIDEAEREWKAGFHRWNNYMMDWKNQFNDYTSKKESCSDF

SMILES | IC50 [1] [nM] | IC50 (BChE from equine serum) [nM] | cytotoxicity on HepG2 cells, in words (HepG2 cells) | IC50 [3] [nM] | inhibition at 100 µM [3] [%] | antagonism of NMDAR activity, in words [3] | IC50 values (mean ± SD) BChE (BChE from equine serum) | further results
Nc1c2c(nc3cc(-c4ccc(C(F)(F)F)cc4)ccc13)CCCC2 [Compound 211, 6-(4-(trifluoromethyl)phenyl)-1,2,3,4-tetrahydroacridin-9-amine] | 74.6 ± 8.29 | 3970 ± 710 | slight toxicity | 490 ± 140 | ~100 | effective in antagonizing NMDAR activity |  | condensed nuclei / viable cells (DAPI staining) after glutamate [2]: clear decrease in the number of condensed nuclei; decrease in MAP2 positive cells and loss of neuronal architecture caused by glutamate [2]: prevented; number of punctate cells [3]: Reduction in the number of punctate cells; inhibition at 50 µM [3]: ~100%; category of NMDAR inhibitor [3]: potent (potent (IC50 < 5 μM))
CCOC(=O)C1CCc2nc3cc(-c4ccc(F)cc4)ccc3c(N)c2C1 (stereo not shown) [Compound 107, ethyl 9-amino-6-(4-fluorophenyl)-1,2,3,4-tetrahydroacridine-2-carboxylate] | 135 ± 10.3 | 1350 ± 90 |  | 15800 ± 3440 |  |  |  | 
Nc1c2c(nc3cc(-c4ccc(F)cc4)ccc13)CCCC2 [Compound 209, 6-(4-fluorophenyl)-1,2,3,4-tetrahydroacridin-9-amine] | 76 ± 3.79 | 1030 ± 170 | non-toxic | 3360 ± 860 | ~100 | effective in antagonizing NMDAR activity |  | fold increase in NMDAR potency compared to 107 [3]: About 4 fold; inhibition at 50 µM [3]: ~100%
NNC(=O)C1CCc2nc3cc(Br)ccc3c(N)c2C1 (stereo not shown) [Compound 8, 9-Amino-6-bromo-1,2,3,4-tetrahydroacridine-2-carbohydrazide] | 138 ± 16.1 | 20400 ± 2110 |  |  |  |  |  | 
CCOC(=O)C1CCc2nc3ccccc3c(N)c2C1 (stereo not shown) [Compound 16, ethyl 9-amino-1,2,3,4-tetrahydroacridine-2-carboxylate] | 42.2 ± 2.7 | 3820 ± 250 |  |  |  | could not effectively block NMDAR activity |  | 
Nc1c2c(nc3cc(-c4ccoc4)ccc13)CCCC2 [Compound 212, 6-(furan-3-yl)-1,2,3,4-tetrahydroacridin-9-amine] | 53.6 ± 4.39 | 990 ± 50 | non-toxic | 16400 ± 2760 |  | effective in antagonizing NMDAR activity | submicromolar | 
Cn1cc(-c2ccc3c(N)c4c(nc3c2)CCCC4)cn1 [Compound 201, 6-(1-methyl-1H-pyrazol-4-yl)-1,2,3,4-tetrahydroacridin-9-amine] | 40.9 ± 4.82 | 850 ± 10 | non-toxic | 15200 ± 6140 | ~100 | effective in antagonizing NMDAR activity | submicromolar | condensed nuclei / viable cells (DAPI staining) after glutamate [2]: clear decrease in the number of condensed nuclei; decrease in MAP2 positive cells and loss of neuronal architecture caused by glutamate [2]: prevented; liver histopathology (H&E), in words (rat liver): did not show any change in the liver architecture; reduction in neuronal viability by glutamate (MTT assay) [4]: averted; category of NMDAR inhibitor [3]: moderate (moderate (IC50 < 20 μM)); escape latency in MWM, 5 days [5]: significantly reduced the escape latency
Nc1c2c(nc3cc(-c4cc[nH]n4)ccc13)CCCC2 [Compound 204, 6-(1H-pyrazol-3-yl)-1,2,3,4-tetrahydroacridin-9-amine] | 137 ± 7.35 | 960 ± 70 | non-toxic | 14600 ± 4320 | ~100 | effective in antagonizing NMDAR activity | submicromolar | 
CCOC(=O)C1CCc2nc3cc(Br)ccc3c(N)c2C1 (stereo not shown) [Compound 5, Ethyl 9-amino-6-bromo-1,2,3,4-tetrahydroacridine-2-carboxylate] | 100 ± 7.2 | 7380 ± 210 |  |  |  |  |  | 
NNC(=O)C1CCc2nc3ccccc3c(N)c2C1 (stereo not shown) [Compound 17, 9-amino-1,2,3,4-tetrahydroacridine-2-carbohydrazide] | 19.3 ± 0.47 |  |  |  |  | could not effectively block NMDAR activity |  | 
Nc1c2c(nc3cc(-c4ccccc4F)ccc13)CCCC2 [Compound 208, 6-(2-fluorophenyl)-1,2,3,4-tetrahydroacridin-9-amine] | 75.1 ± 9.46 | 130 ± 20 |  | 310 ± 90 | ~100 | effective in antagonizing NMDAR activity | submicromolar | selectivity between AChE and BChE, in words ([1]; AChE from electric eel vs BChE from equine serum): comparable inhibitory potency towards both AChE and BChE; condensed nuclei / viable cells (DAPI staining) after glutamate [2]: clear decrease in the number of condensed nuclei; decrease in MAP2 positive cells and loss of neuronal architecture caused by glutamate [2]: prevented; animals showing mild periportal inflammation or congestion (rat liver): 5 out of 6 animals; liver histopathology (H&E), in words (rat liver): mild periportal inflammation or mild congestion; reduction in neuronal viability by glutamate (MTT assay) [4]: averted; fold higher NMDAR inhibitory potency compared to reported value for tacrine [3]: ~600 fold; number of punctate cells [3]: Reduction in the number of punctate cells; inhibition at 50 µM [3]: ~100%; category of NMDAR inhibitor [3]: potent (potent (IC50 < 5 μM))
N#Cc1ccc(-c2ccc3c(N)c4c(nc3c2)CCCC4)cc1 [Compound 205, 4-(9-amino-5,6,7,8-tetrahydroacridin-3-yl)benzonitrile] | 84.2 ± 1.8 | 700 ± 80 | slight toxicity | 2840 ± 460 | ~100 | effective in antagonizing NMDAR activity | submicromolar | 
CNC(=O)C1CCc2nc3cc(-c4cnn(C)c4)ccc3c(N)c2C1 (stereo not shown) [Compound 14, 9-amino-N-methyl-6-(1-methyl-1H-pyrazol-4-yl)-1,2,3,4-tetrahydroacridine-2-carboxamide] | 132 ± 7.7 | 16400 ± 540 | non-toxic | 33900 ± 8410 |  |  |  | condensed nuclei / viable cells (DAPI staining) after glutamate [2]: clear decrease in the number of condensed nuclei; decrease in MAP2 positive cells and loss of neuronal architecture caused by glutamate [2]: prevented; category of NMDAR inhibitor [3]: reduced
Nc1c2c(nc3cc(-c4ccc(OC(F)(F)F)cc4)ccc13)CCCC2 [Compound 206, 6-(4-(trifluoromethoxy)phenyl)-1,2,3,4-tetrahydroacridin-9-amine] | 184 ± 19.2 | 1210 ± 160 |  | 9190 ± 2680 | ~100 | effective in antagonizing NMDAR activity |  | 
CSc1ccc(-c2ccc3c(N)c4c(nc3c2)CCCC4)cc1 [Compound 210, 6-(4-(methylthio)phenyl)-1,2,3,4-tetrahydroacridin-9-amine] | 149 ± 16.8 | 940 ± 120 |  | 270 ± 50 | ~100 | effective in antagonizing NMDAR activity | submicromolar | condensed nuclei / viable cells (DAPI staining) after glutamate [2]: clear decrease in the number of condensed nuclei; decrease in MAP2 positive cells and loss of neuronal architecture caused by glutamate [2]: prevented; reduction in neuronal viability by glutamate (MTT assay) [4]: averted; fold higher NMDAR inhibitory potency compared to reported value for tacrine [3]: ~600 fold; inhibition at 50 µM [3]: ~100%; category of NMDAR inhibitor [3]: potent (potent (IC50 < 5 μM))
CCOC(=O)C1CCc2nc3cc(-c4cnn(C)c4)ccc3c(N)c2C1 (stereo not shown) [Compound 10, Ethyl-9-amino-6-(1-methyl-1H-pyrazol-4-yl)-1,2,3,4-tetrahydroacridine-2-carboxylate] | 107 ± 8.7 | 4390 ± 280 |  | 31100 ± 4800 |  |  |  | 
C[C@]12N[C@H](Cc3ccccc31)c1ccccc12 [MK-801, reference compound] |  |  |  |  |  |  |  | condensed nuclei / viable cells (DAPI staining) after glutamate [2]: prevented
Nc1c2c(nc3cc(-c4cncnc4)ccc13)CCCC2 [Compound 203, 6-(pyrimidin-5-yl)-1,2,3,4-tetrahydroacridin-9-amine] | 18.5 ± 2.09 | 1500 ± 200 | slight toxicity | 28100 ± 5100 |  | effective in antagonizing NMDAR activity |  | 
Nc1c2c(nc3ccccc13)CCCC2 [tacrine, reference compound] |  |  |  |  |  |  |  | concentration up to which safe on HepG2 cells (HepG2 cells): up to 50 µM; reduction in cell viability (HepG2 cells; HepG2, 300 µM): ~50%; IC50 (NMDAR): 193000 ± 33000 nM
Nc1c2c(nc3cc(-c4cccnc4)ccc13)CCCC2 [Compound 214, 6-(pyridin-3-yl)-1,2,3,4-tetrahydroacridin-9-amine] | 49.4 ± 2.37 | 820 ± 90 | non-toxic | 38800 ± 9640 |  | effective in antagonizing NMDAR activity | submicromolar | 
